# Reference: doi:10.1101/2023.11.24.568596v1 (biorxiv, 2023)
# Assays:
# Settings in all cases: binder
# [1] = molecular target: T1, NEK1 (Homo sapiens, UniProt Q96PY6)
# T1 sequence (Q96PY6 1-1258): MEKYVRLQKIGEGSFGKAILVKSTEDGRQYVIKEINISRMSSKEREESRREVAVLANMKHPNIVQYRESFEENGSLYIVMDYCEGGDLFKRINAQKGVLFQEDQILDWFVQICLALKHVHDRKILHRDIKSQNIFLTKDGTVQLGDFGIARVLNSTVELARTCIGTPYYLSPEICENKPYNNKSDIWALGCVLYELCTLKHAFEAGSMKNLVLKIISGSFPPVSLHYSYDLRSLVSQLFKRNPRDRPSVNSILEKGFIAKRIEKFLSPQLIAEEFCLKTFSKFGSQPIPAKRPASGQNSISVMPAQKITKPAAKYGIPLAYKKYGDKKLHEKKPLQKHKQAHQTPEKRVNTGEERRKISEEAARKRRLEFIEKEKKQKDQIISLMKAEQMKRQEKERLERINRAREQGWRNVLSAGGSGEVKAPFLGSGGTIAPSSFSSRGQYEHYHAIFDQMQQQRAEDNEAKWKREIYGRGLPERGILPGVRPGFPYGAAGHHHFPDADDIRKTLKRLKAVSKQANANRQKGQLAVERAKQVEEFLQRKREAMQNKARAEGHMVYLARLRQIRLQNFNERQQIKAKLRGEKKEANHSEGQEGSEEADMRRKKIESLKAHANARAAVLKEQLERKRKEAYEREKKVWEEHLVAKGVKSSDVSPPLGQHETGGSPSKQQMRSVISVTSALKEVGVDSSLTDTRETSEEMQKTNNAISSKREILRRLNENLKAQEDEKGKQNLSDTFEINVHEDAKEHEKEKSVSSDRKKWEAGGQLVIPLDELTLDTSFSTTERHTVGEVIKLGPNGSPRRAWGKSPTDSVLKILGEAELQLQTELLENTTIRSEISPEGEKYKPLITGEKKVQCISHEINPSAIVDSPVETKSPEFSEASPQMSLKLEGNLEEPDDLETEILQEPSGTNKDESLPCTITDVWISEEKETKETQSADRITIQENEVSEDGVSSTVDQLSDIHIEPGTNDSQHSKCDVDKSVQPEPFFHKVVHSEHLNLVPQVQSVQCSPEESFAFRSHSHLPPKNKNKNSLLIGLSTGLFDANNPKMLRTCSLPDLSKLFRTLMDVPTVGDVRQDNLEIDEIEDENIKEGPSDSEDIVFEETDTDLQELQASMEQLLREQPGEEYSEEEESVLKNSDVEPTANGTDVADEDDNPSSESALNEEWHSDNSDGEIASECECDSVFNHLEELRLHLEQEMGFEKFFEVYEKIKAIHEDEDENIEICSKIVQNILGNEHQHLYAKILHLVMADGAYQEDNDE
# [2] = molecular target: NDR2 (Homo sapiens, UniProt Q9Y2H1)
# Chain of NDR2 (Q9Y2H1 whole entry): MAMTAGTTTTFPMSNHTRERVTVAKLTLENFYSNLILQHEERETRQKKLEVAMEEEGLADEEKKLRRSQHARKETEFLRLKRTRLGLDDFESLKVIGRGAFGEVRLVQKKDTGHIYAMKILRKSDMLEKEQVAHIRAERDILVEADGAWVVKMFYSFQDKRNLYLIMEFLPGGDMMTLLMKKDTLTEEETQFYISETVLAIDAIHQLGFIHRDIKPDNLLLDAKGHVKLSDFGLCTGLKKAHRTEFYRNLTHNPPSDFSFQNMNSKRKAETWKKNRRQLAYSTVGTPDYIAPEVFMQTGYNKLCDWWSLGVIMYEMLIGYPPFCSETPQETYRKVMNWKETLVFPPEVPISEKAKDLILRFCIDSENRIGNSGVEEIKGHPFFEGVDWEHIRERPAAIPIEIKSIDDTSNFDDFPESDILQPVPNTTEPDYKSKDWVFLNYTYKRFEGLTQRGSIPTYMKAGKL
# [3] = molecular target: LOK (Homo sapiens, UniProt O94804)
# Chain of LOK (O94804 whole entry): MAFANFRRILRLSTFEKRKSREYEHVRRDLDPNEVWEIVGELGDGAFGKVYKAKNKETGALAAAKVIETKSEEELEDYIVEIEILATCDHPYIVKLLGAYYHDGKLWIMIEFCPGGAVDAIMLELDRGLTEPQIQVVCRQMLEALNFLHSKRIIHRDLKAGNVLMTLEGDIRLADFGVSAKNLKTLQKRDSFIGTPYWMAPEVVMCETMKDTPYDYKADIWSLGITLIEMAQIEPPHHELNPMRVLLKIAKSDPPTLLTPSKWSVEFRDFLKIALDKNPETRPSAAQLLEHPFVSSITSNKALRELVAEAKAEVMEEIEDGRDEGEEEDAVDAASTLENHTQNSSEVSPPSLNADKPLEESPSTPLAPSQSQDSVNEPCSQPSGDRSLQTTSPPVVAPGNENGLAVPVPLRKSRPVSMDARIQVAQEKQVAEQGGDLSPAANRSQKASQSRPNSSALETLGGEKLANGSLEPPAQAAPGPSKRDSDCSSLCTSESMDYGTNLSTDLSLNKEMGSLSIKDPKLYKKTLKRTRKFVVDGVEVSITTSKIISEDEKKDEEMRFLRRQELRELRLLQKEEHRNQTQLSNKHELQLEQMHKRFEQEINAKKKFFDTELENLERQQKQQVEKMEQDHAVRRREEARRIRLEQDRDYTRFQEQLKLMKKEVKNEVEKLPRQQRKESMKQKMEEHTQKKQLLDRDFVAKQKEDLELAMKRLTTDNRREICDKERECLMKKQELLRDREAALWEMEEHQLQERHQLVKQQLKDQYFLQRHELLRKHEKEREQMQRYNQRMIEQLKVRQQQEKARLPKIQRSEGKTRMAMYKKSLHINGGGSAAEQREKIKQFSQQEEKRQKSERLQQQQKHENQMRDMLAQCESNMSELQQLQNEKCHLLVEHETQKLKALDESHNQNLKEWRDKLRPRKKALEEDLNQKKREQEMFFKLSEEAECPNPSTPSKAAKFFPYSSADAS
# [4] = molecular target: JNK2 (Homo sapiens, UniProt P45984)
# Chain of JNK2 (P45984 whole entry): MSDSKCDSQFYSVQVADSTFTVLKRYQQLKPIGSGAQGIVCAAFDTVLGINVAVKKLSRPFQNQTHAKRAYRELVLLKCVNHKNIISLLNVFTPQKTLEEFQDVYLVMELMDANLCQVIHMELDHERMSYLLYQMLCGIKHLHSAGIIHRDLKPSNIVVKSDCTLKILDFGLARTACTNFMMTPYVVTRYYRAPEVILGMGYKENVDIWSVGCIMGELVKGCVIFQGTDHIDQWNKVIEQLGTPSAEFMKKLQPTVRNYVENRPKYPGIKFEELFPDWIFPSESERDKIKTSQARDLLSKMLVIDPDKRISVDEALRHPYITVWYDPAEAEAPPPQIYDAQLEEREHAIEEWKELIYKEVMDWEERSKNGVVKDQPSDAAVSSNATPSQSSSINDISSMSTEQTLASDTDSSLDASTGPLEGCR
# [5] = molecular target: T2, PLK4 (Homo sapiens, UniProt O00444)
# T2 sequence (O00444 1-970): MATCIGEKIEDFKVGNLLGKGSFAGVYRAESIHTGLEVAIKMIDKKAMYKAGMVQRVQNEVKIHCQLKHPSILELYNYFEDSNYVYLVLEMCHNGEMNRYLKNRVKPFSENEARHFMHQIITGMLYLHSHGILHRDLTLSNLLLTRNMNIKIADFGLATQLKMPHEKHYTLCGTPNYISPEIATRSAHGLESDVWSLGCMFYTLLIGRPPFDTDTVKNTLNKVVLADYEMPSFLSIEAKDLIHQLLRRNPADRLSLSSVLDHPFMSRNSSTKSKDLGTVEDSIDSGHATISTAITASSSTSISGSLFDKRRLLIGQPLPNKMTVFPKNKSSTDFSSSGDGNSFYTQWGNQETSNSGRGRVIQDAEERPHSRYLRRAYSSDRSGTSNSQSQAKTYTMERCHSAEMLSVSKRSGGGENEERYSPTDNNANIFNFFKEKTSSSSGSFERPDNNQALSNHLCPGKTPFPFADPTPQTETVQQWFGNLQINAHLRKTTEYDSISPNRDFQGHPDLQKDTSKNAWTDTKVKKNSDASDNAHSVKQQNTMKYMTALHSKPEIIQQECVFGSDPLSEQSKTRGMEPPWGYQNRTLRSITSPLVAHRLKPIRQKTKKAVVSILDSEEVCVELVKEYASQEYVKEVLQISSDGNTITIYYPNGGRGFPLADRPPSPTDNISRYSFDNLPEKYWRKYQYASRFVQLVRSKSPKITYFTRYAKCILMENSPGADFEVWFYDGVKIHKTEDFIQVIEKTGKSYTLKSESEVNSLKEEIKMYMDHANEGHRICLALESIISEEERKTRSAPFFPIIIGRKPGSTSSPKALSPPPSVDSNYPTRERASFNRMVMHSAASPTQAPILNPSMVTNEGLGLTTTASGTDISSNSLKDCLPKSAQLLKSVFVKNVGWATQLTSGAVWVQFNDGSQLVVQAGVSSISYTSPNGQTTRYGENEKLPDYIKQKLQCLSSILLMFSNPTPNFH
# [6] = molecular target: MSK1b (Homo sapiens, UniProt O75582)
# Chain of MSK1b (O75582 whole entry): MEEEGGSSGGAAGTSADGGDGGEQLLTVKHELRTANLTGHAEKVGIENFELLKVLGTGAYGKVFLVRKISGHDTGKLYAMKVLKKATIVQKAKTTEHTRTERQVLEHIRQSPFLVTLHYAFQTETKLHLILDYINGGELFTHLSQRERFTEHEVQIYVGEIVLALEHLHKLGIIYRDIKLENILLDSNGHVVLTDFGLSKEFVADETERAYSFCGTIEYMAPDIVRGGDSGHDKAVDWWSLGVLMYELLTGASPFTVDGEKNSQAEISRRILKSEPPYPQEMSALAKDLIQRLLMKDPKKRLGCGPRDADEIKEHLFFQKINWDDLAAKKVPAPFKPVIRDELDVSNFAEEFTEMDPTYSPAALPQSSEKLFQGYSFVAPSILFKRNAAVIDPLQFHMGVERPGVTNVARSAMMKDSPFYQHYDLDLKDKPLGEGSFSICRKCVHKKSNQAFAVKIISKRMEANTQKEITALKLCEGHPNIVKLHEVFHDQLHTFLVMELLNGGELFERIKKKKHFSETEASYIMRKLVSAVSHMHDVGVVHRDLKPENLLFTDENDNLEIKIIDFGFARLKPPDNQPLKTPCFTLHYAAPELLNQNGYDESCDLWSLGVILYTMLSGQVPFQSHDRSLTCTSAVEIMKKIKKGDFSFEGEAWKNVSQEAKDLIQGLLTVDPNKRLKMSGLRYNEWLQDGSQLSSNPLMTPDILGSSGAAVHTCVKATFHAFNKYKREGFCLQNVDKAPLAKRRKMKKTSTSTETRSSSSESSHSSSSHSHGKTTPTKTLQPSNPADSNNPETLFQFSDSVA
# [7] = molecular target: T3, DRAK2 (Homo sapiens, UniProt O94768)
# T3 sequence (O94768 1-372): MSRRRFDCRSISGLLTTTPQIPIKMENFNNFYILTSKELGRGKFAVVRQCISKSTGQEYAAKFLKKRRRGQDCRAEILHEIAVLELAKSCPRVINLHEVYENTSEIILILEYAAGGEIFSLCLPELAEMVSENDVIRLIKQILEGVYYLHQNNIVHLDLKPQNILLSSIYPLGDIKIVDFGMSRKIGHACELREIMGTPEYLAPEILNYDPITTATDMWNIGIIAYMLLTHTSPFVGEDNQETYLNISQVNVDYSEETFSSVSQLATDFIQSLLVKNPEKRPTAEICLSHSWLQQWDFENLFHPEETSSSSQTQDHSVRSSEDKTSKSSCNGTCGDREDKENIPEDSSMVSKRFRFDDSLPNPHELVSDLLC
smiles,measurement,setting,value
"Cc1cccc(-c2ccc(-c3cc4cnc(Nc5ccc(F)c(CO)c5)nc4n(CCCCN)c3=O)c(Cl)c2)n1 [compound 33, 8-(4-Aminobutyl)-6-(2-chloro-4-(6-methylpyridin-2-yl)phenyl)-2-((4-fluoro-3-(hydroxymethyl)phenyl)amino)pyrido[2,3-d]pyrimidin-7(8H)-one]",dTm 33,[1],-3.6 °C
same,dTm 33,[2],10.4 °C
same,dTm 33,[3],-0.3 °C
same,dTm 33,[4],3.0 °C
same,dTm 33,[5],13.1 °C
same,dTm 33,[6],3.5 °C
same,dTm 33,[7],10.5 °C
"COc1ccc(O)c(Nc2ncc3cc(-c4ccc(-c5cccc(C)n5)cc4Cl)c(=O)n(CCCCN)c3n2)c1 [compound 34, 8-(4-Aminobutyl)-6-(2-chloro-4-(6-methylpyridin-2-yl)phenyl)-2-((2-hydroxy-5-methoxy-phenyl)amino)pyrido[2,3-d]pyrimidin-7(8H)-one]",dTm 34,[1],-1.0 °C
same,dTm 34,[2],6.0 °C
same,dTm 34,[3],-0.3 °C
same,dTm 34,[4],0.3 °C
same,dTm 34,[5],8.8 °C
same,dTm 34,[6],2.4 °C
same,dTm 34,[7],7.5 °C
"COc1cc(N2CCOCC2)ccc1Nc1ncc2cc(-c3ccc(-c4cccc(C)n4)cc3Cl)c(=O)n(CCCCN)c2n1 [compound 35, 8-(4-Aminobutyl)-6-(2-chloro-4-(6-methylpyridin-2-yl)phenyl)-2-((2-methoxy-4-morpholino-phenyl)amino)pyrido[2,3-d]pyrimidin-7(8H)-one]",dTm 35,[1],-0.7 °C
same,dTm 35,[2],6.5 °C
same,dTm 35,[3],-0.8 °C
same,dTm 35,[4],0.1 °C
same,dTm 35,[5],13.6 °C
same,dTm 35,[6],3.8 °C
same,dTm 35,[7],7.0 °C
"COc1cc(N2CCN(C)CC2)ccc1Nc1ncc2cc(-c3ccc(-c4cccc(C)n4)cc3Cl)c(=O)n(CCCCN)c2n1 [compound 36, 8-(4-Aminobutyl)-6-(2-chloro-4-(6-methylpyridin-2-yl)phenyl)-2-((2-methoxy-4-(4-methylpiperazin-1-yl)phenyl)amino)pyrido[2,3-d]pyrimidin-7(8H)-one]",dTm 36,[1],0.0 °C
same,dTm 36,[2],5.2 °C
same,dTm 36,[3],-0.4 °C
same,dTm 36,[4],-0.3 °C
same,dTm 36,[5],11.8 °C
same,dTm 36,[6],3.0 °C
same,dTm 36,[7],4.3 °C
